Source: patent US6979686B1, “Substituted pyrazoles as p38 kinase inhibitors” (Pharmacia Corporation, priority 2001, dated 2005)
pIC50: −log10 of the molar value.

These molecules were tested against T1, human p38 kinase alpha (Homo sapiens, UniProt Q16539) (assay: p38 kinase in vitro assay, phosphorylation of biotinylated PHAS-I with 32P-ATP). Conditions: @ 1.0 uM.
T1 construct: GST (N, cleaved yes); made in house; host or cells: E. coli DH10B
T1 sequence (Q16539 whole entry): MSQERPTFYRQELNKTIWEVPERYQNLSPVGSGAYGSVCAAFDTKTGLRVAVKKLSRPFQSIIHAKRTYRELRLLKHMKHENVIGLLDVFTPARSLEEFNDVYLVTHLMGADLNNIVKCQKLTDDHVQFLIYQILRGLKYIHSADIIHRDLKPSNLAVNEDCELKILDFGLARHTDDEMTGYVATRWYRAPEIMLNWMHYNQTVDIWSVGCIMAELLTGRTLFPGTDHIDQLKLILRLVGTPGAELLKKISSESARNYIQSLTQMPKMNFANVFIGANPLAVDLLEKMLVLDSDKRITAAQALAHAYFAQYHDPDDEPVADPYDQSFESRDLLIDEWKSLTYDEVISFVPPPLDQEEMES
Assay type: biochemical
Procedure: The coding region of the human p38a cDNA was obtained by PCR-amplification from RNA isolated from the human monocyte cell line THP.1. […] Random primer, dNTP's and Superscript™ reagents were all purchased from Life-Technologies, Gaithersburg, Mass. The reaction was incubated at 42° C. for 1 hour. Amplification of p38 cDNA was performed by aliquoting 5 μl of the reverse transcriptase reaction into a 100 μl PCR reaction containing the following: 80 μl dH2O, 2 μl 50 mM DNTP's, 1 μl each of forward and reverse primers (50 pmol/μl), 10 μl of 10×buffer and 1 μl Expand™ polymerase (Boehringer Mannheim). The PCR primers incorporated BamHI sites onto the 5′ and 3′ end of the amplified fragment, and were purchased from Genosys. […] The PCR amplification was carried out in a DNA Thermal Cycler (Perkin Elmer) by repeating 30 cycles of 94° C. for 1 minute, 60° C. for 1 minute and 68° C. for 2 minutes. After amplification, excess primers and unincorporated dNTP's were removed from the amplified fragment with a Wizard™ PCR prep (Promega) and digested with BamHI (New England Biolabs). The BamHI digested fragment was ligated into BamHI digested PGEX 2T plasmid DNA (PharmaciaBiotech) using T-4 DNA ligase (New England Biolabs) as described by T. Maniatis, Molecular Cloning: A Laboratory Manual, 2nd ed. […] The ligation reaction was transformed into chemically competent E. coli DH10B cells purchased from Life-Technologies following the manufacturer's instructions. Plasmid DNA was isolated from the resulting bacterial colonies using a Promega Wizard™ miniprep kit.
Expression of Human p38a:
Overnight cultures were grown in-Luria Broth (LB) containing […] ampicillin. The next day, 500 ml of fresh LB was inoculated with 10 ml of overnight culture, and grown in a 2 liter flask at 37° C. with constant shaking until the culture reached an absorbance of 0.8 at 600 nm. Expression of the fusion protein was induced by addition of isopropyl b-D-thiogalactosidse (IPTG) to a final concentration of 0.05 mM. The cultures were shaken for three hours at room temperature, and the cells were harvested by centrifugation. The cell pellets were stored frozen until protein purification.
Purification of p38 Kinase-α:
All chemicals were from Sigma Chemical Co. unless noted. Twenty grams of E. coli cell pellet collected from five 1 L shake flask fermentations was resuspended in a volume of PBS (140 mM NaCl, 2.7 mM KCl, 10 mM Na2HPO4, 1.8 mM KH2PO4, pH 7.3) up to 200 ml. The cell suspension was adjusted to 5 mM DTT with 2 M DTT and then split equally into five 50 ml Falcon conical tubes. The cells were sonnicated (Ultrasonics model W375) with a 1 cm probe for 3×1 minutes (pulsed) on ice. Lysed cell material was removed by centrifugation (12,000×g, 15 minutes) and the clarified supernatant applied to glutathione-sepharose resin (Pharmacia).
Glutathione-sepharose Affinity Chromatography:
The resin was collected by centrifugation (600×g, 5 min) and washed with 2×150 ml PBS/1% Triton X-100, followed by 4×40 ml PBS. To cleave the p38 kinase from the GST-p38 fusion protein, the glutathione-sepharose resin was resuspended in 6 ml PBS containing 250 units thrombin protease (Pharmacia, specific activity>7500 units/mg) and mixed gently for 4 hours at room temperature. The glutathione-sepharose resin was removed by centrifugation (600×g, 5 min) and washed 2×6 ml with PBS. The PBS wash fractions and digest supernatant containing p38 kinase protein were pooled and adjusted to 0.3 mM PMSF.
Mono O Anion Exchange Chromatography:
The thrombin-cleaved p38 kinase was further purified by FPLC-anion exchange chromatography.
In the case of `CCCCS(=O)(=O)NCCCc1[nH]nc(-c2ccc(F)cc2)c1-c1ccncc1` [Example B-1199], the “P38 alpha kinase % inhib @ conc.” value was 87.0% @. With `CC(C)NC(=O)NCCCc1[nH]nc(-c2ccc(F)cc2)c1-c1ccncc1` [Example B-1206] the “P38 alpha kinase % inhib @ conc.” value was 81.0% @.

Same assay, conditions: @ 1.0 uM; read-out: P38 alpha kinase % inhib @ conc.
Work on `O=C(NCc1[nH]nc(-c2ccc(F)cc2)c1-c1ccncc1)c1ccccc1[N+](=O)[O-]` [Example B-0024] yielded an inhibition at 1 µM of 94%.

Same assay, conditions: @ 10.0 uM
With `Cc1c(-c2ccncc2)c(-c2ccc(F)cc2)nn1CC(=O)Nc1ccccc1C(C)(C)C` [Example B-2435] the “P38 alpha kinase IC50, uM or % inhib @ conc. (uM): % inhib” value (“P38 alpha kinase IC50 … % inhib” for short) was 84.0% @. `Cc1c(-c2ccncc2)c(-c2ccc(F)cc2)nn1CC(=O)Nc1ccccc1SCCCc1ccccc1` [Example B-2460] was tested, and the “P38 alpha kinase IC50 … % inhib” value was 80.0% @. For `Cc1c(-c2ccncc2)c(-c2ccc(F)cc2)nn1CC(=O)NC1CCSc2ccccc21` (stereo not shown) [Example B-2348], the “P38 alpha kinase % inhib @ conc.” value was 76.0% @. `Cc1c(-c2ccncc2)c(-c2ccc(F)cc2)nn1CC(=O)Nc1ccc(CSc2ccc(Cl)cc2)cc1` [Example B-2461] was tested, and the “P38 alpha kinase IC50 … % inhib” value was 67.0% @. With `Cc1c(-c2ccncc2)c(-c2ccc(F)cc2)nn1CC(=O)Nc1ccccc1C(F)(F)F` [Example B-2419] the “P38 alpha kinase IC50 … % inhib” value was 86.0% @.

Same assay, conditions: @ 100.0 uM
In the case of `COc1ccc(CCN(CCC#N)C(=O)Cn2nc(-c3ccc(F)cc3)c(-c3ccncc3)c2C)cc1OC` [Example B-2403], the “P38 alpha kinase IC50 … % inhib” value was 72% @.

Same assay, conditions: in vitro P38-alpha kinase inhibition; read-out: P38 alpha kinase IC50
Work on `CC(NS(=O)(=O)c1cccc(Cl)c1Cl)c1[nH]nc(-c2ccc(F)cc2)c1-c1ccncc1` (stereo not shown) [Example B-0622] yielded a pIC50 of 7.12. Molecule `CC(NC(=O)c1ccncc1)c1[nH]nc(-c2ccc(F)cc2)c1-c1ccncc1` (stereo not shown) [Example B-0555] has a pIC50 of 5.73. `O=S(=O)(NCCc1[nH]nc(-c2ccc(F)cc2)c1-c1ccncc1)c1cccc2cnccc12` [Example B-1118] gave a pIC50 of 6.48. Work on `CC(NC(=O)NC(Cc1ccccc1)c1[nH]nc(-c2ccc(F)cc2)c1-c1ccncc1)c1ccccc1` (stereo not shown) [Example B-0736] yielded a pIC50 of 4.59. `CC(NS(=O)(=O)c1cccc2nonc12)c1[nH]nc(-c2ccc(F)cc2)c1-c1ccncc1` (stereo not shown) [Example B-0654] gave a pIC50 of 5.22. Molecule `CCNC(=O)NC(Cc1ccccc1)c1[nH]nc(-c2ccc(F)cc2)c1-c1ccncc1` (stereo not shown) [Example B-0788] has a pIC50 of 5.92. Work on `CC(C)c1ccc(S(=O)(=O)NCCc2[nH]nc(-c3ccc(F)cc3)c2-c2ccncc2)cc1` [Example B-1074] yielded a pIC50 of 6.64. `CC(NC(=O)c1cccc(F)c1F)c1[nH]nc(-c2ccc(F)cc2)c1-c1ccncc1` (stereo not shown) [Example B-0695] gave a pIC50 of 6.64. `O=S(=O)(NC(Cc1ccccc1)c1[nH]nc(-c2ccc(F)cc2)c1-c1ccncc1)c1ccc(F)cc1F` (stereo not shown) [Example B-0757] gave a pIC50 of 6.27. `COCC(=O)NC(C)c1[nH]nc(-c2ccc(F)cc2)c1-c1ccncc1` (stereo not shown) [Example B-0543] gave a pIC50 of 5.81. Work on `O=C(NCCc1[nH]nc(-c2ccc(F)cc2)c1-c1ccncc1)c1ccc(F)cc1F` [Example B-1152] yielded a pIC50 of 6.14. `O=S(=O)(NCCc1[nH]nc(-c2ccc(F)cc2)c1-c1ccncc1)c1ccccc1Br` [Example B-1082] gave a pIC50 of over 7.00. `O=S(=O)(NCCc1[nH]nc(-c2ccc(F)cc2)c1-c1ccncc1)c1ccccc1C(F)(F)F` [Example B-1086] gave a pIC50 of over 7.00.

Same assay, conditions: in vitro P38-alpha kinase; read-out: P38 alpha kinase IC50
`O=[N+]([O-])c1ccccc1CS(=O)(=O)NCCCc1[nH]nc(-c2ccc(F)cc2)c1-c1ccncc1` [Example B-1247] showed a pIC50 of over 7.00. `Cc1ccc(F)cc1S(=O)(=O)NCCCc1[nH]nc(-c2ccc(F)cc2)c1-c1ccncc1` [Example B-1256] gave a pIC50 of 6.92. `O=S(=O)(NCCCc1[nH]nc(-c2ccc(F)cc2)c1-c1ccncc1)c1cc(Cl)cc(Cl)c1O` [Example B-1241] showed a pIC50 of 7.40. Work on `O=S(=O)(NCc1[nH]nc(-c2ccc(F)cc2)c1-c1ccncc1)c1ccc(-c2ccccc2)cc1` [Example B-0256] yielded a pIC50 of over 7.00. For `Cc1c(-c2ccncc2)c(-c2ccc(F)cc2)nn1CC(=O)NCCC#N` [Example B-2314], the pIC50 was 4.96. In the case of `Cc1c(-c2ccncc2)c(-c2ccc(F)cc2)nn1CC(=O)NCCC1=CCCCC1` [Example B-2316], the pIC50 was 6.34.
